Data published in US3932459A, “Novel cyclopropanecarboxylic acid esters” (Sumitomo Chemical Company, Limited, priority 1973, dated 1976).
Values after ≈ are worked out from the molar mass of the structure shown.

Key:
[1] = system: green rice leafhoppers (Nephotettix cincpriceps); assay: Knock-down of green rice leafhoppers on treated rice seedlings (Experiment 3); format: in vivo; conditions: 400-fold aqueous diluted solution of 20% emulsifiable concentrate
Protocol: Each of the present compounds (1) to (7), and the corresponding chrysanthemic acid esters were individually formulated into a 20% emulsifiable concentrate by usual methods.
About 20 rice seedlings were grown up to a 3- to 4-leave stage in a flower pot of 10 cm in diameter, and the 400-fold aqueous diluted solution of each emulsifiable concentrate was applied thereto by means of a turn table.
After air-drying, each pot was placed in a 5 liter glass beaker and covered with gauze at the top. Then, 20 green rice leafhoppers (Nephotettix cincpriceps) were liberated therein and the number of knocked down insects were counted at definite time intervals.

[2] = system: house-fly adults (Musca domestica); assay: Oil spray, Campbel's turn table apparatus, house-fly adults (Experiment 1); format: in vivo; conditions: for LC50: Musca domestica, read-out: LC50 (50% lethal concentration); for Relative efficacy: corresponding dl-trans-chrysanthemic acid ester (control) = 1.0
Protocol: The dl-trans isomer of each of the present compounds (1), (2), (4) and (7), and the corresponding dl-trans-chrysanthemic acid esters were individually dissolved in deodorized kerosene to prepare oil sprays of required concentration.
5 ml of each of the oil sprays were sprayed, using Campbel's turn table apparatus ("Soap and Sanitary Chemicals," Vol. 14, No. 6, 119, 1938). Twenty seconds after spraying, the shutter was opened, and about 100 house-fly adults (Musca domestica) per group were exposed to the descending mist for 10 minutes and then transferred to the observation cage. In the cage, the flies were fed and allowed to stand for one day at room temperature.
Thereafter, the number of killed flies was counted to calculate the mortality thereof.

[3] = system: fourth instar larvae of diamond-back moth (Plutella maculipennis); assay: Emulsifiable concentrate sprayed on chinese cabbage leaves, diamond-back moth larvae (Experiment 2); format: in vivo; conditions: for LC50: Plutella, 48 h, 20% emulsifiable concentrate diluted with water, after 2 days, read-out: LC50 (50% lethal concentration); for Relative efficacy: corresponding chrysanthemic acid ester (control) = 1.0
Protocol: Each of the present compounds (1), (2) and (5), and the corresponding chrysanthemic acid esters were individually formulated into a 20% emulsifiable concentrate by usual methods.
10 ml of each of the emulsifiable concentrates which had been diluted with water to the required concentration were sprayed on to four leaves of chinese cabbage grown up to a 3- to 4-leave stage. Then the leaves were placed in a glass Petri dish of 14 cm in diameter and 7 cm high, and 10 fourth instar larvae of diamond-back moth (Plutella maculipennis) were liberated therein. After 2 days, the dead and alive were counted.

insects = conditions: J. Farkas et al., Chem. Listy 52, 688, 1958; cited from earlier work

CC1(C)C(C=C(Cl)Cl)C1C(=O)OCc1ccc(C2C=CCC2)s1 (stereo not shown) [Present compound (8), 5-(2'-cyclopentene-1'-yl)-2-thenyl 2",2"-dimethyl-3"-(2"',2"'-dichlorovinyl)-cyclopropanecarboxylate]
KT50 (a time required for 50% knock-down) [1]: 19 min

CC(C)=C[C@@H]1[C@@H](C(=O)OCc2ccc(Oc3ccccc3)s2)C1(C)C (relative stereo)
LC50 ([2]; 24 h): 540 µg/mL (≈ 1510 µM)
Relative efficacy [2]: 1.0

CC1(C)[C@H](C=C(Cl)Cl)[C@H]1C(=O)OCc1cc2c(s1)CCCC2 (relative stereo) [dl-Trans isomer of present compound (4), 4-5-Tetramethylene-2-thenyl 2',2'-dimethyl-3'-(2",2"-dichlorovinyl)-cyclopropanecarboxylate]
LC50 ([2]; 24 h): 217 µg/mL (≈ 604 µM)
Relative efficacy [2]: 3.8

CC(C)=C[C@@H]1[C@@H](C(=O)OCc2cc3c(s2)CCCC3)C1(C)C (relative stereo)
LC50 ([2]; 24 h): 834 µg/mL (≈ 2620 µM)
Relative efficacy [2]: 1.0

C#CCc1ccc(COC(=O)C2C(C=C(C)C)C2(C)C)s1 (stereo not shown)
KT50 (a time required for 50% knock-down) [1]: 38 min

CC(C)=C[C@@H]1[C@@H](C(=O)OCc2ccc(Cc3ccccc3)s2)C1(C)C (relative stereo)
LC50 ([2]; 24 h): 386 µg/mL (≈ 1090 µM)
Relative efficacy [2]: 1.0

CC(C)=CC1C(C(=O)OCc2ccc(Cc3ccccc3)s2)C1(C)C (stereo not shown)
LC50 [3]: 85 µg/mL (≈ 240 µM)
Relative efficacy [3]: 1.0
KT50 (a time required for 50% knock-down) [1]: 37 min

C=CCc1ccc(COC(=O)C2C(C=C(C)C)C2(C)C)s1 (stereo not shown)
KT50 (a time required for 50% knock-down) [1]: 40 min

CC(C)=CC1C(C(=O)OCc2ccc(Oc3ccccc3)s2)C1(C)C (stereo not shown)
LC50 [3]: 97 µg/mL (≈ 272 µM)
Relative efficacy [3]: 1.0
KT50 (a time required for 50% knock-down) [1]: 45 min

C#CCc1ccc(COC(=O)[C@@H]2[C@@H](C=C(Cl)Cl)C2(C)C)s1 (relative stereo) [dl-Trans isomer of present compound (7), 5-Propargyl-2-thenyl 2',2'-dimethyl-3'-(2",2"-dichlorovinyl)-cyclopropanecarboxylate]
LC50 ([2]; 24 h): 205 µg/mL (≈ 597 µM)
Relative efficacy [2]: 4.2

C=CCC1=C(C)C(OC(=O)C2C(C=C(Cl)Cl)C2(C)C)CC1=O (stereo not shown) [allethronyl ester of the acid]
insecticidal activity (insects): close to that of chrysanthemic acid ester

C=CCc1ccc(COC(=O)C2C(C=C(Cl)Cl)C2(C)C)s1 (stereo not shown) [Present compound (6), 5-Allyl-2-thenyl 2',2'-dimethyl-3'-(2",2"-dichlorovinyl)-cyclopropanecarboxylate]
KT50 (a time required for 50% knock-down) [1]: 19 min

CC1(C)C(C=C(Cl)Cl)C1C(=O)OCc1cc2c(s1)CCCC2 (stereo not shown) [Present compound (4), 4-5-Tetramethylene-2-thenyl 2',2'-dimethyl-3'-(2",2"-dichlorovinyl)-cyclopropanecarboxylate]
KT50 (a time required for 50% knock-down) [1]: 24 min

Pyrethrin
LC50 (50% lethal concentration) ([2]; house fly, in vivo, 24 h): 216 mg/100 ml

CC(C)=CC1C(C(=O)OCc2cc3c(s2)CCC3)C1(C)C (stereo not shown)
LC50 [3]: 114 µg/mL (≈ 374 µM)
Relative efficacy [3]: 1.0
KT50 (a time required for 50% knock-down) [1]: 43 min

CC(C)=CC1C(C(=O)OCc2csc(Cc3ccccc3)c2)C1(C)C (stereo not shown)
KT50 (a time required for 50% knock-down) [1]: 53 min

CC1(C)[C@H](C=C(Cl)Cl)[C@H]1C(=O)OCc1ccc(Oc2ccccc2)s1 (relative stereo) [dl-Trans isomer of present compound (2), 5-Phenoxy-2-thenyl 2',2'-dimethyl-3'-(2",2"-dichlorovinyl)-cyclopropanecarboxylate]
LC50 ([2]; 24 h): 135 µg/mL (≈ 340 µM)
Relative efficacy [2]: 4.0

CC1(C)C(C=C(Cl)Cl)C1C(=O)OCc1cc2c(s1)CCC2 (stereo not shown) [Present compound (5), 4,5-Trimethylene-2-thenyl 2',2'-dimethyl-3'-(2",2"-dichlorovinyl)-cyclopropanecarboxylate]
LC50 [3]: 47 µg/mL (≈ 136 µM)
Relative efficacy [3]: 2.4
KT50 (a time required for 50% knock-down) [1]: 21 min

CC(C)=CC1C(C(=O)OCc2cc3c(s2)CCCC3)C1(C)C (stereo not shown)
KT50 (a time required for 50% knock-down) [1]: 46 min

CC1(C)C(C=C(Cl)Cl)C1C(=O)OCc1ccc(Oc2ccccc2)s1 (stereo not shown) [Present compound (2), 5-Phenoxy-2-thenyl 2',2'-dimethyl-3'-(2",2"-dichlorovinyl)-cyclopropanecarboxylate]
LC50 [3]: 37 µg/mL (≈ 93.1 µM)
Relative efficacy [3]: 2.6
KT50 (a time required for 50% knock-down) [1]: 28 min

CC1(C)C(C=C(Cl)Cl)C1C(=O)OCc1csc(Cc2ccccc2)c1 (stereo not shown) [Present compound (3), 5-Benzyl-3-thenyl 2',2'-dimethyl-3'-(2",2"-dichlorovinyl)-cyclopropanecarboxylate]
KT50 (a time required for 50% knock-down) [1]: 30 min

C#CCc1ccc(COC(=O)[C@@H]2[C@@H](C=C(C)C)C2(C)C)s1 (relative stereo)
LC50 ([2]; 24 h): 858 µg/mL (≈ 2840 µM)
Relative efficacy [2]: 1.0

C#CCc1ccc(COC(=O)C2C(C=C(Cl)Cl)C2(C)C)s1 (stereo not shown) [Present compound (7), 5-Propargyl-2-thenyl 2',2'-dimethyl-3'-(2",2"-dichlorovinyl)-cyclopropanecarboxylate]
KT50 (a time required for 50% knock-down) [1]: 15 min

CC1(C)C(C=C(Cl)Cl)C1C(=O)OCc1ccc(Cc2ccccc2)s1 (stereo not shown) [Present compound (1), 5-benzyl-2-thenyl 2',2'-dimethyl-3'-(2",2"-dichlorovinyl)-cyclopropanecarboxylate]
LC50 [3]: 28 µg/mL (≈ 70.8 µM)
Relative efficacy [3]: 3.0
KT50 (a time required for 50% knock-down) [1]: 17 min

CC1(C)[C@H](C=C(Cl)Cl)[C@H]1C(=O)OCc1ccc(Cc2ccccc2)s1 (relative stereo) [dl-Trans isomer of present compound (1), 5-benzyl-2-thenyl 2',2'-dimethyl-3'-(2",2"-dichlorovinyl)-cyclopropanecarboxylate]
LC50 ([2]; 24 h): 90 µg/mL (≈ 228 µM)
Relative efficacy [2]: 4.3

CC(C)=CC1C(C(=O)OCc2ccc(C3C=CCC3)s2)C1(C)C (stereo not shown)
KT50 (a time required for 50% knock-down) [1]: 40 min
